Test results as given in ChEMBL document CHEMBL1201862, “PubChem BioAssay data set” (2004).
Values joined by “and” are separate entries in the source; they are usually repeats but may differ in a detail not shown here. Identical values can stand only once. Active and inactive are the calls of the source.

How the values were obtained:
[1] = molecular target: Delta-type opioid receptor (Homo sapiens, UniProt P41143); assay: Counterscreen for agonists of heterodimerization of the mu 1 (OPRM1) and delta 1 (OPRD1) opioid receptors: Luminescence-based cell-based high throughput dose response assay to identify agonists of OPRD1 homodimerization. [Related pubchem assays (depositor defined):AID504326, AID504355, AID504692, AID504904, AID504905]; type: functional
Delta-type opioid receptor, sequence (P41143 whole entry): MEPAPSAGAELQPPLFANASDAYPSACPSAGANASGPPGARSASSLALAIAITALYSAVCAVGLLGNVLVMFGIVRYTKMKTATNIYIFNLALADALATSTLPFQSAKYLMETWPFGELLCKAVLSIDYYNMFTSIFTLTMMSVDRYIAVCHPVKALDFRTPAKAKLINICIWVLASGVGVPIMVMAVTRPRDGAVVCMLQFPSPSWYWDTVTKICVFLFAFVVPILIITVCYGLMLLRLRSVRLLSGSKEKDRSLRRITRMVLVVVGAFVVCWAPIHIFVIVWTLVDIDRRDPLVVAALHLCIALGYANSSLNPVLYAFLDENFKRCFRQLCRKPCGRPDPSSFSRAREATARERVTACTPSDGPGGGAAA

Mu-type opioid receptor = Mu-type opioid receptor (Homo sapiens, UniProt P35372); assay: Counterscreen for agonists of heterodimerization of the mu 1 (OPRM1) and delta 1 (OPRD1) opioid receptors: Luminescence-based cell-based high throughput dose response assay to identify agonists of OPRM1 homodimerization.; type: functional;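 also: U2OS cells expressing OPRM1 and beta-arrestin as split beta-galactosidase partners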
Mu-type opioid receptor, sequence (P35372 whole entry): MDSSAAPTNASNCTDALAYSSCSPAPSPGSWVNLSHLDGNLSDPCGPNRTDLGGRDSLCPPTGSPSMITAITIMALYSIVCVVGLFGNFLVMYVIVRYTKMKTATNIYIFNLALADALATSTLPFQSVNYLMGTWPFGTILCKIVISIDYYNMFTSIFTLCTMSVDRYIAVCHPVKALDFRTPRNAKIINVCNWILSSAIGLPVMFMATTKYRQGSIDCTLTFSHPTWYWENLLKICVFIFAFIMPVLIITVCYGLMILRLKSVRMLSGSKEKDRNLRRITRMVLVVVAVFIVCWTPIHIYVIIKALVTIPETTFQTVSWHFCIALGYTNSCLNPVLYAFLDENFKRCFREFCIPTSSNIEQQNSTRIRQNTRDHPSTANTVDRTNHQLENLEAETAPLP

[2] = molecular target: 5-hydroxytryptamine receptor 5A (Homo sapiens, UniProt P47898); assay: Counterscreen for agonists of OPRM1-OPRD1 heterodimerization: luminescence-based cell-based high throughput dose response assay to identify agonists of 5-hydroxytryptamine (serotonin) 5A receptor (HTR5A). [Related pubchem assays (depositor defined):AID504326, AID504355, AID504692, AID504904, AID504905]; type: functional
5-hydroxytryptamine receptor 5A, sequence (P47898 whole entry, the tested form may be a part): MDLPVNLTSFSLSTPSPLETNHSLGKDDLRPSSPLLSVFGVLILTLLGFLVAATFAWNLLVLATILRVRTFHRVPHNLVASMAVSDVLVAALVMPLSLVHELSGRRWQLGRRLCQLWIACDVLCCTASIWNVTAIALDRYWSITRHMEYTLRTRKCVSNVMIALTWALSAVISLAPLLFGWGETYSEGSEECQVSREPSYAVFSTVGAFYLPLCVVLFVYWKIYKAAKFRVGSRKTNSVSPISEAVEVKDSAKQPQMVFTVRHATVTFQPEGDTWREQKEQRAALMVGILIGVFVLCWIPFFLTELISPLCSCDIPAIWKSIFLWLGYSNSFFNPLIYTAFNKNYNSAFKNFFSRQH

[3] = inhibitors of HIV Env-driven cell fusion, dose response, cherry-pick (AID 652057); type: functional, cell-based
[4] = CEM21 lymphoblast cell cytotoxicity, dose response, cytotoxicity control for viral fusion inhibitor project, CellTiter-Glo luminescence, cherry-picked (AID 652042); type: functional, cell-based;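 also: potency for signal decrease meaning cytotoxicity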
Paired box protein Pax-8 = Paired box protein Pax-8 (Homo sapiens, UniProt Q06710); assay: inhibitors of PAX8-driven TPO luciferase reporter, dose response, RMG-I cells, cherry-pick (AID 687027); type: functional, cell-based;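 also: luciferase reporter driven by Pax8 target thyroperoxidase promoter measured by SteadyGlo luminescence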
Paired box protein Pax-8, sequence (Q06710 whole entry): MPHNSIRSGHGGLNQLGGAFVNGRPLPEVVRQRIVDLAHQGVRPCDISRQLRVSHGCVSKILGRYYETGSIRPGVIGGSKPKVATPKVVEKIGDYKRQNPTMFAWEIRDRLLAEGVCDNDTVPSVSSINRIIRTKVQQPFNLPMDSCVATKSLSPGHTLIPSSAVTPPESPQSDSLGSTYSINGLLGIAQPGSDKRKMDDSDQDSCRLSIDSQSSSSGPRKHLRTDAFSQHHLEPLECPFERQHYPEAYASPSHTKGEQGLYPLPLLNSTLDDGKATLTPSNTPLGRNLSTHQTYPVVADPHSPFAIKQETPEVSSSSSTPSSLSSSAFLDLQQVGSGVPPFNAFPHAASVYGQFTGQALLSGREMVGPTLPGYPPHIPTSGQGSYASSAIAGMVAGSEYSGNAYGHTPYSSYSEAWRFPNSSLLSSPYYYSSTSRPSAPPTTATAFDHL

Cytochrome P450 2D6 = Cytochrome P450 2D6 (Homo sapiens, UniProt P10635);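 also: CYP2D6 member of a cytochrome P450 panel assay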
[5] = molecular target: Voltage-gated inwardly rectifying potassium channel KCNH2 (Homo sapiens, UniProt Q12809); settings: Potency;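 also: confirmatory quantitative high-throughput screen measuring inhibition of hERG channel activity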
Voltage-gated inwardly rectifying potassium channel KCNH2, sequence (Q12809 whole entry): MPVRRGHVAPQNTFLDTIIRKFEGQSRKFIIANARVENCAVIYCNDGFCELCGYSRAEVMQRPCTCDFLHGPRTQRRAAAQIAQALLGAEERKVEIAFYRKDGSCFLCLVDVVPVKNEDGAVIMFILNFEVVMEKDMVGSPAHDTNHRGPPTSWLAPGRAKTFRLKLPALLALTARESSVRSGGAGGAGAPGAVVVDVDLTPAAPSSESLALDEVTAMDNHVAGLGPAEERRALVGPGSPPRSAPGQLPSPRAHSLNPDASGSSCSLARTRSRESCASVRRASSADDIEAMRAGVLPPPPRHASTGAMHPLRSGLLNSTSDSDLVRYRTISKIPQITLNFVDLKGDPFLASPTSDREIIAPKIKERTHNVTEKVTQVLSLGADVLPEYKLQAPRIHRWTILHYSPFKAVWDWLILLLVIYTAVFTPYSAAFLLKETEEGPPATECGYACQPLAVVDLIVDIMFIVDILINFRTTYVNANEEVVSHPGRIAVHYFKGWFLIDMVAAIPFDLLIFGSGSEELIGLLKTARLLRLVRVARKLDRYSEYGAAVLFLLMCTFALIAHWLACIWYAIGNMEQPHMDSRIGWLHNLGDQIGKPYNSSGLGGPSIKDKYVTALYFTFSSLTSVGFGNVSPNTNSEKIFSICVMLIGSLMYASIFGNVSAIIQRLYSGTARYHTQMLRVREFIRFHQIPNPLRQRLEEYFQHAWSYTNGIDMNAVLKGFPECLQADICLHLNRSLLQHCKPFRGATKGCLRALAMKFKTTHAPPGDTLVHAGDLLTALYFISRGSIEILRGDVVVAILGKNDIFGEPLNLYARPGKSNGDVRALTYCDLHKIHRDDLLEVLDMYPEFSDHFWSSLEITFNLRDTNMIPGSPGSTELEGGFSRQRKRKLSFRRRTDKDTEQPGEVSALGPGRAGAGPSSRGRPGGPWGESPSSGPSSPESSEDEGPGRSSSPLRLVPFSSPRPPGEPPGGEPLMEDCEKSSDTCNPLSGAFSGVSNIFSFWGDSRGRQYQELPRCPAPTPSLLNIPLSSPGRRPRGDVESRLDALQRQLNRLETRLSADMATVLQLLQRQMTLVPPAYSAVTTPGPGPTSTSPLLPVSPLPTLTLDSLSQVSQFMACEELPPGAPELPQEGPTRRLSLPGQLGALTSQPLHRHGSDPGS

Beta Lactamase [6] = molecular target: T1, Beta Lactamase (Pseudomonas aeruginosa, UniProt Q932Y6);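 also: confirmatory high-throughput screen measuring VIM-2 metallo-beta-lactamase inhibition by epi-absorbance in dose response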
T1 sequence (Q932Y6 whole entry): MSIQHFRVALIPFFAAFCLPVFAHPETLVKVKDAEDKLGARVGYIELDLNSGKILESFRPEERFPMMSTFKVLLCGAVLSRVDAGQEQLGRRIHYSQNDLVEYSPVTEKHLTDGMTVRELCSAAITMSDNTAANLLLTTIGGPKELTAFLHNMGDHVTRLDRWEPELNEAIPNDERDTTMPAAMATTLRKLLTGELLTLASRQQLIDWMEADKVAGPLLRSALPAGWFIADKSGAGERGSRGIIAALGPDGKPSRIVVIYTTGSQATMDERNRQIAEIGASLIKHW

Beta-lactamase [7] = molecular target: Beta-lactamase (Pseudomonas aeruginosa, UniProt Q79MP6);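 also: biochemical dose-response test of metallo-beta-lactamase enzyme inhibition, read out by epi-absorbance; purified recombinant IMP-1 metallo-beta-lactamase with nitrocefin as substrate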
Beta-lactamase [8] = molecular target: Beta-lactamase (Salmonella choleraesuis (strain SC-B67), UniProt Q5J463)
CHO = assay: cytotoxicity in TLR9-MyD88 CHO cells, dose response, cytotoxicity control for TLR9-MyD88 binding inhibitor project, cell-based, luminescence (AID 588339); type: functional, hamster; settings: Cricetulus griseus;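 also: CHO cells stably coexpressing TLR9 and MyD88 fusions from primary screen; compound exposure lasted 48 hours before viability readout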
Beta Lactamase [9] = molecular target: T1, Beta Lactamase; assay: beta-lactamase reporter inhibitor potency, dose response, artefact control for TLR9-MyD88 binding inhibitor project, BLA reporter cells, FRET fluorescence (AID 588341); type: cell-based;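 also: cell based assay in CHO-K1 cells stably expressing beta-lactamase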
[10] = HEp-2 cell cytotoxicity, dose response, cytotoxicity control for RSV inhibitor project, HTS (AID 2410); type: functional; settings: human respiratory syncytial virus
[11] = molecular target: Dual specificity protein kinase CLK1 (Homo sapiens, UniProt P49759); assay: CLK1 kinase inhibitors, off-target check, dose response, selectivity assay for Dyrk1A inhibitor project, biochemical, cherry-picked samples (AID 588811)
[12] = molecular target: Dual specificity tyrosine-phosphorylation-regulated kinase 1A (Rattus norvegicus, UniProt Q63470); type: biochemical, Homo sapiens
Candida albicans [13] = assay: growth inhibition of resistant C. albicans, dose response, CaCi-8 strain, fluconazole, dry powder, set 4 (AID 488950); type: functional, organism-based
Candida albicans [14] = assay: C. albicans growth inhibition with fluconazole, dose response, antifungal resistance reversal project, CaCi-2 strain, Alamar Blue, dry powder, set 2 (AID 488930); type: functional, organism-based
Candida albicans [15] = assay: fluconazole resistance reversal in C. albicans, dose response, CaCi-2 strain, Alamar Blue, dry powder, set 4 (AID 488943); type: functional, organism-based
Candida albicans [16] = assay: growth inhibition of azole-resistant C. albicans, dose response, CaCi-8 strain, Alamar Blue, dry powder, set 2 (AID 488909); type: functional, organism-based
HEK293 [17] = assay: cytotoxicity in HEK293T NF-kB-Luc cells, SAR follow-up, cytotoxicity control for NF-kB activator project, cell-based, resazurin fluorescence (AID 493251); type: functional; settings: Homo sapiens
Jurkat = assay: SAR Analysis of small molecule inhibitors of T-cell specific antigen receptor-induced NF-kB activation in a Jurkat cell line using a luminescence assay - Set 2. [Related pubchem assays (depositor defined):AID435003, AID435012, AID465]; type: functional, cell-based; settings: Homo sapiens
HEK293 [18] = assay: SAR Analysis of small molecule inhibitors of T-cell specific antigen receptor-induced NF-kB activation in a HEK-293T cell line using a luminescence assay - Set 2. [Related pubchem assays (depositor defined):AID435003, AID435012, AID489026]; type: functional, cell-based; settings: Homo sapiens
Caspase-3 = molecular target: T2, Caspase-3 (Homo sapiens, UniProt P42574); assay: caspase-3 inhibitors as off-family protease, SAR follow-up, selectivity assay for SENP protease inhibitor project, biochemical, luminescence, set 2 (AID 588599); type: functional
T2 sequence (P42574 whole entry): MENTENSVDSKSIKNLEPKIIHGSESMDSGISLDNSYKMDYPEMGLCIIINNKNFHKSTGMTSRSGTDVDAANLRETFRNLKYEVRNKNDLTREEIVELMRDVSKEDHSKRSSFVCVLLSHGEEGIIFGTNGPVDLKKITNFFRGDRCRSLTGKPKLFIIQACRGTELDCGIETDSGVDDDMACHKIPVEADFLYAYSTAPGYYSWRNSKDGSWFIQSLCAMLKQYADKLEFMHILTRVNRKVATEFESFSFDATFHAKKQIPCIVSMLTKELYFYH

[19] = molecular target: T3, Sentrin-specific protease 8 (Homo sapiens, UniProt Q96LD8); assay: SENP8 protease inhibitors, SAR follow-up, biochemical, luminescence, set 2 (AID 588601); type: functional
T3 sequence (Q96LD8 whole entry): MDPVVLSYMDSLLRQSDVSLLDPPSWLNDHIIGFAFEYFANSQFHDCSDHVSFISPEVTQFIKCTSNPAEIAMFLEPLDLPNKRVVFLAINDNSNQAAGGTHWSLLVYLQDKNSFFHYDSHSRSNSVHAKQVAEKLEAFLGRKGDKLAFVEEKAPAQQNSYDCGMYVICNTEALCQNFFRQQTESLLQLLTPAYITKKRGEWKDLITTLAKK

[20] = molecular target: T4, Sentrin-specific protease 7 (Homo sapiens, UniProt Q9BQF6); assay: SENP7 protease inhibitors, SAR follow-up, biochemical, luminescence, set 2 (AID 588600); type: functional
T4 sequence (Q9BQF6 whole entry): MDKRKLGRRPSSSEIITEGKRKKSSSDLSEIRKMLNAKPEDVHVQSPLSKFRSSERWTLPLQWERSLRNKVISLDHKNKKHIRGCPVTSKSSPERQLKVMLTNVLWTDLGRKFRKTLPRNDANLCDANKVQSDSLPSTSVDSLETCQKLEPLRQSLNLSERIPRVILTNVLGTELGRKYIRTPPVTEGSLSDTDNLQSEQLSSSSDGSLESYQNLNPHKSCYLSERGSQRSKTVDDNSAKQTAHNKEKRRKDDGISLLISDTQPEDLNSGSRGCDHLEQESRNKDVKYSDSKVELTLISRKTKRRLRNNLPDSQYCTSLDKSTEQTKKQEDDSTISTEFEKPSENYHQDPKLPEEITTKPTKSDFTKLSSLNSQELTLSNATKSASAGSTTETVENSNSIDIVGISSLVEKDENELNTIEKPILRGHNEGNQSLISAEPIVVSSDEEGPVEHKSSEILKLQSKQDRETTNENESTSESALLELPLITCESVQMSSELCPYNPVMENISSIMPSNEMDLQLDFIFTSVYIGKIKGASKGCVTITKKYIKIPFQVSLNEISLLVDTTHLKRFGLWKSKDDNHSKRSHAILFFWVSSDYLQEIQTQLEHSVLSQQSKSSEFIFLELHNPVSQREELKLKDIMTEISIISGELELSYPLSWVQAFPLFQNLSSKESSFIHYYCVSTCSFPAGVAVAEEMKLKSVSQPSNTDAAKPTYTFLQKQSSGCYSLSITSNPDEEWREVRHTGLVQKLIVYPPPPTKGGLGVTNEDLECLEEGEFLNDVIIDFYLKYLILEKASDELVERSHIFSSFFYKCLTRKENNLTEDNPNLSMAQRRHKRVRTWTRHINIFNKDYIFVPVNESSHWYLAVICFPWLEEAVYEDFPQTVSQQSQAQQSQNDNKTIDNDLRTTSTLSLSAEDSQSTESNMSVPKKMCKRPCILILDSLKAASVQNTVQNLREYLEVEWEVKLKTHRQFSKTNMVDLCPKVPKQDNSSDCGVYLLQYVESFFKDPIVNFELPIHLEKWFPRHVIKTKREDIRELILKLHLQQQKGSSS

[21] = molecular target: T5, Sentrin-specific protease 6 (Homo sapiens, UniProt Q9GZR1); assay: SENP6 protease inhibitors, SAR follow-up, biochemical, luminescence, set 2 (AID 588598); type: functional
T5 sequence (Q9GZR1 whole entry): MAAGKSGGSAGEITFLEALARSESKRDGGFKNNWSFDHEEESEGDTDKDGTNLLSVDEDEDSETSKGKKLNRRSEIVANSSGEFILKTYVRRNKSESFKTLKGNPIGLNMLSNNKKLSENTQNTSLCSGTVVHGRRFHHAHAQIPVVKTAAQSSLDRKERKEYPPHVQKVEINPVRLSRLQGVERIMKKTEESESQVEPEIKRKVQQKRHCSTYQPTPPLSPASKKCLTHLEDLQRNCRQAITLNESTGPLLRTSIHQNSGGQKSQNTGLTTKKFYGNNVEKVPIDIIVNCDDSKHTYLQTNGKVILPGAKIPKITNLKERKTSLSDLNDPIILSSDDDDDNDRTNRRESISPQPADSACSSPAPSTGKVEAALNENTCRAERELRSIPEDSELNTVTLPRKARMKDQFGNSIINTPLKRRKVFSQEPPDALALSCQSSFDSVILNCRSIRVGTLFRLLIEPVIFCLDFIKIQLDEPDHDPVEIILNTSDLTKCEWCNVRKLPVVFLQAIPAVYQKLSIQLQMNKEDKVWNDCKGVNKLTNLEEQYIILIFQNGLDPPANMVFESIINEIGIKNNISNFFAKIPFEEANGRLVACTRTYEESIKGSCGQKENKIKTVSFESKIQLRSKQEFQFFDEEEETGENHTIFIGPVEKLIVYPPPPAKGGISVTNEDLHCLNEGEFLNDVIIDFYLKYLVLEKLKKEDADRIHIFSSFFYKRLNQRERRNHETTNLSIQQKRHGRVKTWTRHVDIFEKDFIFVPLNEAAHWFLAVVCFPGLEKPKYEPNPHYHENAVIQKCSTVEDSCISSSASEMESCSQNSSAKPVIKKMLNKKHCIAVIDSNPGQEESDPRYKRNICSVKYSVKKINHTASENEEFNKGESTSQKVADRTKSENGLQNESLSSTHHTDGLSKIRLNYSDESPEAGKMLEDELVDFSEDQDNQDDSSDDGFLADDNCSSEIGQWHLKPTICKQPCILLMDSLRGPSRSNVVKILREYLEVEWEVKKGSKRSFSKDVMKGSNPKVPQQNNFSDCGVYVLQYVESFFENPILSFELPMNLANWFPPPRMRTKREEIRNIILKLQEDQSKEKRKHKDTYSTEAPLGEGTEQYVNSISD

[22] = KCNQ1/KCNE1 channel current potentiation, dose response, selectivity assay for KCNQ2 activator project, automated patch clamp, CHO cells (AID 493042); type: functional
[23] = molecular target: Potassium voltage-gated channel subfamily KQT member 2 (Rattus norvegicus, UniProt O88943); assay: Mode of action assay-Dose response assay for compounds that activate KCNQ2 potassium channels on automated patch clamp. [Related pubchem assays (depositor defined):AID2239, AID2258, AID2287, AID493113]; type: functional
Potassium voltage-gated channel subfamily KQT member 2, sequence (O88943 whole entry): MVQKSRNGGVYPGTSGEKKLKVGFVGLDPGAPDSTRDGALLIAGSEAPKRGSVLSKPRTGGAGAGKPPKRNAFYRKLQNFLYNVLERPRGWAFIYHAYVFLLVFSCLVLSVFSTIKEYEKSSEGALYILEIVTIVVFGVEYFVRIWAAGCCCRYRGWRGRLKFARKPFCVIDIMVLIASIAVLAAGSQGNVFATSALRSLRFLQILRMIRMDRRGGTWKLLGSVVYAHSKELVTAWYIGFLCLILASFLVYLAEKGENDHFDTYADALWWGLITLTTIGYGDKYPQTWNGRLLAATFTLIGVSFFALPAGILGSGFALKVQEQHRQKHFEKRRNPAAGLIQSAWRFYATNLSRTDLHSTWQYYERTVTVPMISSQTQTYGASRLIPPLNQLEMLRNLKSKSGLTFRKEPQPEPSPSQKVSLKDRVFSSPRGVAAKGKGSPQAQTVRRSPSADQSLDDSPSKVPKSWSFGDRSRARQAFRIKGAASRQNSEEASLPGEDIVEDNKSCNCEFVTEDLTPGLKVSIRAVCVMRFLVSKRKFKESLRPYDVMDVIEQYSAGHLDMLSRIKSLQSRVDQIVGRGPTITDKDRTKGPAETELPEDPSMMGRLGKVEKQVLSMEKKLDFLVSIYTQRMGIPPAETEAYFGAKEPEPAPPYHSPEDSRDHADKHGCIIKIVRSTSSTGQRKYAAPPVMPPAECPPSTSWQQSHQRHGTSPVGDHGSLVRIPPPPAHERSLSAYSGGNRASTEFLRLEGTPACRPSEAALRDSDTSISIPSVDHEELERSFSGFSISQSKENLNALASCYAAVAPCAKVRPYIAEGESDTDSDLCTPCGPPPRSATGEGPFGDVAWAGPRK

[24] = molecular target: Potassium voltage-gated channel subfamily KQT member 2/member 3 (Rattus norvegicus, UniProt O88943+O88944); assay: Mode of action assay-Dose response assay for KCNQ2 activators in the KCNQ2/KCNQ3 co-expressing cells on automated patch clamp. [Related pubchem assays (depositor defined):AID2239, AID2258, AID2287]; type: functional
Potassium voltage-gated channel subfamily KQT member 2/member 3, sequence (O88943 whole entry): as above
Potassium voltage-gated channel subfamily KQT member 2/member 3, sequence (O88944 whole entry): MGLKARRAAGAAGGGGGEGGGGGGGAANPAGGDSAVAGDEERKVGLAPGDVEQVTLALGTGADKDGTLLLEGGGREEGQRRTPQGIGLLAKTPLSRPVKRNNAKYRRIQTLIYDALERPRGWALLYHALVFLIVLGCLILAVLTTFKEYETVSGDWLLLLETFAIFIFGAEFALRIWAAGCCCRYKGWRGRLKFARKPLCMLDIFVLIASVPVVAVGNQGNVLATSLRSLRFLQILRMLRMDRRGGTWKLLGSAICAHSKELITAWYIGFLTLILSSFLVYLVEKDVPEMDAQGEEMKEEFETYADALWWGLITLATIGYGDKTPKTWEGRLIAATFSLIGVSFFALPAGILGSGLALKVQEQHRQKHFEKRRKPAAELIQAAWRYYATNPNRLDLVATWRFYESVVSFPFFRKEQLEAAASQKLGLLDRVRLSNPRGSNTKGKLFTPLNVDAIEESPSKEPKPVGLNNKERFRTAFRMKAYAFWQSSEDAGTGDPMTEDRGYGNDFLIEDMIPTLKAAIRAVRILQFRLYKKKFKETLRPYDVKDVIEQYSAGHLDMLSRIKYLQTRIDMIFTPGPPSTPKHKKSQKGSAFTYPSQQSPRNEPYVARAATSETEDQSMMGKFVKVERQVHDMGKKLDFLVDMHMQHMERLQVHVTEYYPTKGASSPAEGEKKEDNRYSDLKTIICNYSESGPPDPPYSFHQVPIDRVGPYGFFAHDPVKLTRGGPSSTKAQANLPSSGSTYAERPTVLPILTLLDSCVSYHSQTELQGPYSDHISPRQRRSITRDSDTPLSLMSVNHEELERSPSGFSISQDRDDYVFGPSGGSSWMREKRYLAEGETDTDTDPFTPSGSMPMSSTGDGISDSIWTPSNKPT

## CCN(c1nc(N)c(C(=O)NC(=N)N)nc1Cl)C(C)C [5-(N-ETHYL-N-ISOPROPYL)AMILORIDE]
[1]
  EC50: 64.1 µM (inactive)
Mu-type opioid receptor
  EC50: > 92.5 µM (inactive)
[2]
  EC50: 85.8 µM (inactive)
[3]
  AC50: 1.98 µM (active)
[4]
  AC50: 63.8 µM (active)
Paired box protein Pax-8
  AC50: 20.9 µM (active)
Cytochrome P450 2D6
  AC50: 31.6 µM (inconclusive)
[5]
  AC50: 35.5 µM (inconclusive)

## O=C(O)c1ccccc1-c1ccc(/C=C/c2cc(C(F)(F)F)nc(O)n2)o1
Beta Lactamase [6]
  IC50: 25 µM (inactive)
Beta-lactamase [7]
  IC50: 30.2 µM (inactive)
Beta-lactamase [8]
  IC50: 6.74 µM (active)
CHO
  IC50: > 49.8 µM (inactive)
Beta Lactamase [9]
  IC50: 7 µM (active)

## O=c1cc(-c2ccccc2Cl)oc2c(NS(=O)(=O)c3ccccc3C(F)(F)F)ccc(O)c12
[10]
  CC50: 48.5 µM (active)
[11]
  AC50: 18.9 µM (active)
[12]
  AC50: 65.4 µM (active)

## O=C(c1ccc(Cl)nc1)N1CCN(c2ccnc3cc(Cl)ccc23)CC1
Candida albicans [13]
  AC50: 7.3 µM (active)
Candida albicans [14]
  AC50: 2.99 µM (active)
Candida albicans [15]
  AC50: 3.16 µM (active)
Candida albicans [16]
  AC50: < 0.195 µM (active)

## CC(C)(C)NC(=O)CCc1nc(-c2ccc(C(C)(C)C)cc2)no1
HEK293 [17]
  IC50: 39 µM (inactive)
Jurkat
  IC50: 2.77 µM (active)
HEK293 [18]
  IC50: 6.68 µM (active)

## Cc1[nH]c2ccccc2c1/C=N/NC(=O)Cc1nnc(N)s1
Caspase-3
  IC50: > 99 µM (inactive)
[19]
  IC50: > 99 µM (inactive)
[20]
  IC50: > 99 µM (inactive)
[21]
  IC50: > 99 µM (inactive)

## Cc1cc(C)c(NC(=O)C2CC3CCC2C3)c(C)c1 (stereo not given)
[22]
  EC50: 31.9 µM (active)
[23]
  EC50: 410 nM (active) and 369 nM (active) and 230 nM (active)
[24]
  EC50: 0.366 µM (active)
